Test results taken from paper PMC7435600, “Flavonoids and Terpenoids with PTP-1B Inhibitory Properties from the Infusion of Salvia amarissima Ortega” (Molecules, 2020).

Experiments:
[1] = target: T1, protein tyrosine phosphatase 1B (PTP-1B) (Homo sapiens, UniProt P18031); experiment: Protein tyrosine phosphatase 1B inhibition assay (pNPP); assay type: biochemical; details: for IC50: hPTP-1B, pNPP substrate, three independent determinations, read-out: PTP-1B inhibitory activity expressed as IC50 (converted)
T1 construct: made in house
T1 sequence (P18031 1-435): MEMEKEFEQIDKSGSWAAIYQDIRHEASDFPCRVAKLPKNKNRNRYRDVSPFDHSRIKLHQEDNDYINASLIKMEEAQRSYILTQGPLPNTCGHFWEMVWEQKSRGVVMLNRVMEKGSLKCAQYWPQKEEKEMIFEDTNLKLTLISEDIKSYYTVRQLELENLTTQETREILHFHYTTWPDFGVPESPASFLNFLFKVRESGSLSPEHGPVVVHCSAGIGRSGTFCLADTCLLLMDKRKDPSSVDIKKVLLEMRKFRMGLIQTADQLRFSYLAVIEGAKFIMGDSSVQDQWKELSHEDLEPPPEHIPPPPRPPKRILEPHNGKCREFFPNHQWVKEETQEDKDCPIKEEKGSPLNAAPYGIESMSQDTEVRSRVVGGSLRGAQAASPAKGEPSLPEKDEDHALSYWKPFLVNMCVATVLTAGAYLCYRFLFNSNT
Protocol: The expression and purification of hPTP-1B was performed as previously described. […] Aliquots of 0–10 μL of testing materials (triplicated) were incubated for 5 min with 20 μL of enzyme stock solution in Tris-HCl (22 nM). After incubation, 10 μL of p-nitrophenylphosphate (pNPP; 5 mM) was added and further incubated for 15 min at 25 °C; then, the absorbance was determined (λmax 415 nm). For all samples, the inhibitory activity was determined as a percentage in comparison to the blank (Tris-HCl) according to the following equation:(1) % PTP1B=(1−A415t/A415C)×100 where % PTP-1B is the percentage of inhibition, A415t is the corrected absorbance of the extracts, fraction, or compounds under testing (A415end − A415initial) and A415C is the absorbance of the blank (A415end blank − A415initial blank).

[2] = system: mammal α-glucosidases; parameters: method as in PMID 28422509; details: cited from earlier work
[3] = parameters: method as in doi:10.17129/botsci.2187; details: cited from earlier work
[4] = system: PTP-1B; parameters: method as in PMID 22940448; details: other studies; cited from earlier work

| IC50 [1] | Compound | also measured |
| --- | --- | --- |
| 280 µM | CC1CCC23COC(=O)C2=CC(OC2OC(CO)C(O)C(O)C2O)CC3C1(C)CCc1ccoc1 (stereo not drawn) [Compound 1, amarisolide] | inhibitory activity against mammal α-glucosidases ([2]; in vitro and in vivo): showed inhibitory activity; inhibition of α-glycosidases in vivo [2]: inhibited; antinociceptive properties [3]: demonstrated |
| 189 µM | COc1cc(-c2cc(=O)c3c(O)c(O)c(OC)cc3o2)ccc1O [Compound 2, 5,6,4′-trihydroxy-7,3′-dimethoxyflavone] |  |
| 137 µM | O=C(/C=C/c1ccc(O)c(O)c1)O[C@H](Cc1ccc(O)c(O)c1)C(=O)O [Compound 5, rosmarinic acid] |  |
| 62 µM | COc1cc2oc(-c3ccc(O)c(O)c3)cc(=O)c2c(O)c1O [Compound 7, pedalitin] | inhibition of α-glycosidases in vivo [2]: inhibited; antinociceptive properties [3]: demonstrated |
| 514 µM | C[C@@H]1CC[C@@]23COC(=O)C2=C[C@@H](O[C@@H]2O[C@H](CO)[C@@H](O)[C@H](O)[C@H]2O)C[C@@H]3[C@@]1(C)CCC1=CC(=O)OC1O (stereo partly drawn) [Compound 8a,b, (2S,5S,8R,9R,10R,14R,S)-2-(O-β-D-glucopyranosyl)-neo-clerodan-14-hydroxy-3, 13-diene-14,15;18,19-diolide] |  |
|  | C[C@H]1[C@H](C)CC[C@]2(C(=O)O)CC[C@]3(C)C(=CC[C@@H]4[C@@]5(C)CC[C@H](O)C(C)(C)[C@@H]5CC[C@]43C)[C@H]12 [UA, ursolic acid, reference compound] | times more active than compound 7 experimentally ([1]; ratio of PTP-1B IC50, UA vs compound 7): 2.2 times; IC50 [4]: […] |

| Compound | IC50 [1] | also measured |
| --- | --- | --- |
| O=c1cc(-c2ccc(O)c(O)c2)oc2cc(O)c(O)c(O)c12 [Compound 3, 6-hydroxyluteolin] | 80.1 µM |  |
| C[C@@H]1O[C@@H](OC[C@H]2O[C@@H](Oc3c(-c4ccc(O)c(O)c4)oc4cc(O)cc(O)c4c3=O)[C@H](O)[C@@H](O)[C@@H]2O)[C@H](O)[C@H](O)[C@H]1O [Compound 4, rutin] | 323 µM |  |
| O=c1c(O[C@@H]2O[C@H](CO)[C@@H](O)[C@H](O)[C@H]2O)c(-c2ccc(O)c(O)c2)oc2cc(O)cc(O)c12 [Compound 6, isoquercitrin] | 260 µM |  |
